# Reference: patent publication US8765779B2, “Tricyclic derivatives and their pharmaceutical use and compositions” (Cephalon, Inc., priority 2009, dated 2014)
# Read-outs that look alike come from different tables or passages of the source.
# How the values were obtained:
# human 5-HT6 receptor = target: T1, human 5-HT6 receptor (Homo sapiens, UniProt P50406); test: Human 5-HT6 Receptor Binding Assay ([3H]LSD displacement, scintillation beads); settings: membranes of CHO-K1 cells with recombinant human 5-HT6, 4 nM [3H]LSD, read-out: h5-HT6 (Ki)
# T1 construct: host or cells: CHO-K1 cells, stably transfected; membranes prepared in house
# T1 sequence (P50406 whole entry): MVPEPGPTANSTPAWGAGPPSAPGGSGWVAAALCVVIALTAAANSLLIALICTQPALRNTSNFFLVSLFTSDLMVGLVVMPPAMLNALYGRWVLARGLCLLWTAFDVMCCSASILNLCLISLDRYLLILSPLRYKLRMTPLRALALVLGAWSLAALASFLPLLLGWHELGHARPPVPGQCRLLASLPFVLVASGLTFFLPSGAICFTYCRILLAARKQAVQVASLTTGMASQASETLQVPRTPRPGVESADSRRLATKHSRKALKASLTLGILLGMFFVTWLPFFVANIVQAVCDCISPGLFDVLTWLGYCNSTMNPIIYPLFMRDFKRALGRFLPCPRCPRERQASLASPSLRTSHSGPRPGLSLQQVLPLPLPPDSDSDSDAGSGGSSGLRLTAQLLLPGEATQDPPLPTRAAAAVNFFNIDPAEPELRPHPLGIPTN
# rats [1] = settings: compared to an untreated control group; cited from earlier work
# rats [2] = settings: rat model of tonic, persistent pain; cited from earlier work
"Ki (human 5-HT6 receptor; Table 1, class symbols) [µM]",melting point,Structure (SMILES),Ki (human 5-HT6 receptor; specific data) [µM],non-REM (NREM) sleep (rats [1]),antinociceptive effect (rats [2])
< 0.5,269 to 272 °C,"O=S(=O)(c1ccc2c3c(oc2c1)C1(CCOC1)NCC3)c1cccc(F)c1F (single isomer, unassigned; enantiomer 1) [Example 473, 7-[(2,3-Difluorophenyl)sulfonyl]-3,4,4′,5-tetrahydro-2H-spiro[1-benzofuro[2,3-c]pyridine-1,3′-furan], enantiomer 1]",–,–,–
< 0.5,249 to 252 °C,"CC1(C(F)F)NCCc2c1oc1cc(S(=O)(=O)c3cccc(F)c3F)ccc21 (single isomer, unassigned; enantiomer 2) [Example 472, 1-(Difluoromethyl)-7-[(2,3-difluorophenyl)sulfonyl]-1-methyl-1,2,3,4-tetrahydro[1]benzofuro[2,3-c]pyridine, enantiomer 2]",–,–,–
< 0.5,153 to 155 °C,"O=S(=O)(c1cccc(F)c1)c1ccc2c3c(oc2c1)C1(COC1)NCC3 [Example 48, 7-[(3-fluorophenyl)sulfonyl]-3,4-dihydro-2H-spiro[1-benzofuro[2,3-c]pyridine-1,3′-oxetane]]",–,–,–
< 0.5,128 to 130 °C,Cc1cncc(Oc2cccc(S(=O)(=O)c3ccc4c(c3)OC3CNCCC43)c2)n1 (stereo not drawn) [Example 63],–,–,–
< 0.5,222 to 223 °C,O=S(=O)(c1ccc2c(c1)OC1CNCCC21)c1c(Cl)cccc1Cl (stereo not drawn) [Example 64],–,–,–
< 0.5,195 to 196 °C,O=S(=O)(c1ccc2c(c1)OC1CNCCC21)c1nc2ccccc2s1 (stereo not drawn) [Example 65],–,–,–
< 0.5,188 to 189 °C,Cc1c(Cl)cccc1S(=O)(=O)c1ccc2c(c1)OC1CNCCC21 (stereo not drawn) [Example 66],–,–,–
< 0.5,195 to 196 °C,O=S(=O)(c1ccc2c(c1)OC1CNCCC21)c1cccc2nsnc12 (stereo not drawn) [Example 67],–,–,–
< 0.5,164 to 165 °C,Cn1ccc2c(S(=O)(=O)c3ccc4c(c3)OC3CNCCC43)cccc21 (stereo not drawn) [Example 68],–,–,–
< 0.5,188 to 189 °C,O=S(=O)(c1ccc2c(c1)OC1CNCCC21)c1nc2ccccc2[nH]1 (stereo not drawn) [Example 69],–,–,–
> 1,200 to 201 °C,Cc1ccc2nsnc2c1S(=O)(=O)c1ccc2c(c1)OC1CNCCC21 (stereo not drawn) [Example 70],–,–,–
> 1,222 to 223 °C,COc1ccc2sc(S(=O)(=O)c3ccc4c(c3)OC3CNCCC43)nc2c1 (stereo not drawn) [Example 71],–,–,–
> 1,189 to 190 °C,O=S(=O)(c1ccc2c(c1)OC1CNCCC21)c1cccc2nonc12 (stereo not drawn) [Example 72],–,–,–
< 0.5,228 to 229 °C,CC(=O)Nc1cccc(S(=O)(=O)c2ccc3c(c2)OC2CNCCC32)c1 (stereo not drawn) [Example 73],–,–,–
< 0.5,238 to 240 °C,O=S(=O)(c1cccc(OCc2ccccc2)c1)c1ccc2c(c1)OC1CNCCC21 (stereo not drawn) [Example 74],–,–,–
> 1,> 300 °C,O=S(=O)(c1cccc(-n2cnnn2)c1)c1ccc2c(c1)OC1CNCCC21 (stereo not drawn) [Example 75],–,–,–
< 0.5,202 to 203 °C,COc1cc(OCc2ccccc2)cc(S(=O)(=O)c2ccc3c(c2)OC2CNCCC32)c1 (stereo not drawn) [Example 76],–,–,–

"Ki (human 5-HT6 receptor; Table 1, class symbols) [µM]",melting point,Structure (SMILES),Ki (human 5-HT6 receptor; specific data) [µM],non-REM (NREM) sleep (rats [1]),antinociceptive effect (rats [2])
< 0.5,258 to 259 °C,COc1ccc(Cl)cc1S(=O)(=O)c1ccc2c3c(oc2c1)CNCC3 [Example 80],–,–,–
< 0.5,245 to 246 °C,O=S(=O)(c1ccc2c3c(oc2c1)CNCC3)c1cccc(Cl)c1F [Example 81],–,–,–
< 0.5,258 to 259 °C,Cc1c(Cl)cccc1S(=O)(=O)c1ccc2c3c(oc2c1)CNCC3 [Example 82],–,–,–
< 0.5,242 to 243 °C,O=S(=O)(c1ccc2c3c(oc2c1)CNCC3)c1cccc2nsnc12 [Example 83],–,–,–
< 0.5,224 to 225 °C,Cn1ccc2cccc(S(=O)(=O)c3ccc4c5c(oc4c3)CNCC5)c21 [Example 84],–,–,–
< 0.5,246 to 247 °C,COc1cc(OC(C)C)cc(S(=O)(=O)c2ccc3c4c(oc3c2)CNCC4(C)C)c1 [Example 85],–,–,–
< 0.5,291 to 293 °C,CC1(C)CNCc2oc3cc(S(=O)(=O)c4cccc(F)c4)ccc3c21 [Example 86],–,–,–
< 0.5,251 to 252 °C,CC(C)Oc1cccc(S(=O)(=O)c2ccc3c4c(oc3c2)CNCC4(C)C)c1 [Example 87],–,–,–
< 0.5,216 to 217 °C,COc1cc2c(cc1S(=O)(=O)c1cccc(Cl)c1Cl)C1CCNCC1O2 (stereo not drawn) [Example 88],–,–,–
< 0.5,197 to 204 °C,COc1cc2c(cc1S(=O)(=O)c1cccc(F)c1)C1CCNCC1O2 (stereo not drawn) [Example 89],–,–,–
< 0.5,> 300 °C,CC1CNCc2oc3cc(S(=O)(=O)c4cccc(F)c4)ccc3c21 (stereo not drawn) [Example 102],–,–,–
< 0.5,140 to 155 °C (dec.),"CC(=O)NCC1(C)NCCc2c1oc1cc(S(=O)(=O)c3cccc(F)c3)ccc21 (stereo not drawn) [Example 492, N-({7-[(3-fluorophenyl)sulfonyl]-1-methyl-1,2,3,4-tetrahydro[1]benzofuro[2,3-c]pyridin-1-yl}methyl)acetamide]",–,–,–
< 0.5,> 250 °C (dec.),"CC1(CN)NCCc2c1oc1cc(S(=O)(=O)c3cccc(F)c3)ccc21 (stereo not drawn) [Example 493, 1-{7-[(3-Fluorophenyl)sulfonyl]-1-methyl-1,2,3,4-tetrahydro[1]benzofuro[2,3-c]pyridin-1-yl}methanamine]",–,–,–
< 0.5,279 to 281 °C,"O=S(=O)(c1cccc(O)c1)c1ccc2c3c(oc2c1)CNCC3 [Example 627, 3-(1,2,3,4-Tetrahydro-benzo[4,5]furo[2,3-c]pyridine-7-sulfonyl)-phenol]",–,–,–
–,–,CN1CCN(c2cccc3c(S(=O)(=O)c4ccccc4)c[nH]c23)CC1 [RO 4368554],–,increase in non-REM (non-rapid eye movement or NREM) sleep,–
–,–,COc1ccc(NS(=O)(=O)c2sc3ccc(Cl)cc3c2C)cc1N1CCNCC1 [SB-271046],–,–,"short-lived, antinociceptive effect"

Structure (SMILES),"Ki (human 5-HT6 receptor; Table 1, class symbols) [µM]",melting point,Ki (human 5-HT6 receptor; specific data) [µM],non-REM (NREM) sleep (rats [1]),antinociceptive effect (rats [2])
CC12CCNCC1Oc1ccc(S(=O)(=O)c3cccc(F)c3)cc12 (stereo not drawn) [Example 90],< 0.5,168 to 171 °C,–,–,–
CC12CCNCC1Oc1ccc(S(=O)(=O)c3ccccn3)cc12 (stereo not drawn) [Example 91],> 1,255 to 257 °C,–,–,–
CC12CCNCC1Oc1ccc(S(=O)(=O)c3ccc(F)cc3)cc12 (stereo not drawn) [Example 92],> 1,163 to 165 °C,–,–,–
CC12CCNCC1Oc1ccc(S(=O)(=O)c3ccc(F)cc3F)cc12 (stereo not drawn) [Example 93],0.5 to 1,215 to 216 °C,–,–,–
CC12CCNCC1Oc1ccc(S(=O)(=O)c3cc(F)cc(F)c3)cc12 (stereo not drawn) [Example 94],< 0.5,196 to 198 °C,–,–,–
COc1ccc(S(=O)(=O)c2ccc3c(c2)C2(C)CCNCC2O3)cc1F (stereo not drawn) [Example 95],< 0.5,185 to 187 °C,–,–,–
CC(=O)Nc1ccc(S(=O)(=O)c2ccc3c(c2)C2(C)CCNCC2O3)cc1 (stereo not drawn) [Example 96],> 1,212 to 214 °C,–,–,–
CC12CCNCC1Oc1ccc(S(=O)(=O)c3ccccc3CO)cc12 (stereo not drawn) [Example 97],> 1,204 to 206 °C,–,–,–
CC(C)Oc1cccc(S(=O)(=O)c2ccc3c(c2)C2(C)CCNCC2O3)c1 (stereo not drawn) [Example 98],< 0.5,162 to 164 °C,–,–,–
"CC12CCNCC1Oc1ccc(S(=O)(=O)c3ccccc3F)cc12 (stereo not drawn) [Example 99, 6-[(2-fluorophenyl)sulfonyl]-4a-methyl-1,2,3,4,4a,9a-hexahydro[1]benzofuro[2,3-c]pyridine]",< 0.5,260 to 262 °C,0.243,–,–
CC12CCNCC1Oc1ccc(S(=O)(=O)c3cccc(Cl)c3)cc12 (stereo not drawn) [Example 100],< 0.5,160 to 162 °C,–,–,–
CC12CCNCC1Oc1ccc(S(=O)(=O)c3cccc(Cl)c3Cl)cc12 (stereo not drawn) [Example 101],< 0.5,210 to 212 °C,–,–,–
CC12CCNCC1Oc1ccc(S(=O)(=O)c3cccc(Cl)c3)cc12 (stereo not drawn) [Example 103],< 0.5,218 to 220 °C,–,–,–
CC12CCNCC1Oc1ccc(S(=O)(=O)c3cccc(Cl)c3)cc12 (stereo not drawn) [Example 104],> 1,216 to 218 °C,–,–,–
CC12CCNCC1Oc1ccc(S(=O)(=O)c3cccc(Cl)c3Cl)cc12 (stereo not drawn) [Example 105],< 0.5,242 to 244 °C,–,–,–
CC12CCNCC1Oc1ccc(S(=O)(=O)c3cccc(Cl)c3Cl)cc12 (stereo not drawn) [Example 106],< 0.5,244 to 246 °C,–,–,–
"CCNC(=O)Oc1cccc(S(=O)(=O)c2ccc3c(c2)OC2CNCCC32)c1 (stereo not drawn) [Example 628, 3-[1,2,3,4,4a,9a-Hexahydro[1]benzofuro[2,3-c]pyridin-7-ylsulfonyl]phenyl ethylcarbamate]",< 0.5,217 to 219 °C,–,–,–
